# Tested on: Human Coronary Artery Endothelial Cells (HCAEC)
# Test: CyQuant cell number / proliferation, HCAEC (Example 7)
# Type: cell-based
# Conditions: 1 mg/ml, after 96 hours post agent treatment, not following 24 hours exposure only
# Method: Cells were exposed to the test compounds for 24 to 48 hours and then allowed to grow for 96 hours in regular media (without test compound). The final concentrations for cell treatment were as follows: compounds 13358-18-1, 13358-18-2, 13358-18-4, and 13358-18-6 were evaluated at 10 mg/ml, 1 mg/ml, 100 micrograms/ml, and 10 micrograms/ml. Compounds 13358-18-3 and 13358-18-5 were evaluated at 50 mg/ml, 10 mg/ml, 1 mg/ml, and 100 micrograms/ml.
# Three assays were used to look at the proliferation, viability and cytotoxicity of the compounds on the cells. A non-radioactive cytotoxicity assay available under the trade designation CytoTox 96 from Promega Corporation (Madison, Wis.) is designed to determine the cytotoxicity of a substance by quantitatively measuring the presence of lactate dehydrogenase (LDH) in cell culture supernatant. LDH is released in cells that are undergoing cell death and the assay converts it to a red formazan product that can allows for the proportional amount of LDH absorbance to be read. A cell proliferation assay available under the trade designation CyQuant from Invitrogen Corporation (Carlsbad, Calif.) determines the density of cells in culture by eluding a green fluorescent dye which fluoresces when bound to cellular nucleic acids. The amount of nucleic acid present is proportional to the amount of living cells in culture, therefore an accurate cell count can be obtained. A luminescent cell viability assay available under the trade designation CellTiter-Glo from Promega Corporation (Madison, Wis.) uses the amount ATP present in the cell cytoplasm as an indicator for metabolic activity. The amount of ATP present is proportional to the measured amount of a luminescent signal. This assay was used to confirm if the cells are still viable after exposure to the test compounds.
row,SMILES,cell number and viability
1,"CC(=O)CCC(O)C(O)c1ccccc1 (stereo not drawn) [Compound 13358-18-1, 5,6-dihydroxy-6-phenyl-hexan-2-one]",some antiproliferative effect with viable cells
2,"O=C1CCCCC1CC(O)CO (stereo not drawn) [Compound 13358-18-4, 2-(2′,3′-dihydroxypropyl)-cyclohexanone]",some antiproliferative effect with viable cells
3,"CC(=O)OCC(O)CO (stereo not drawn) [Compound 13358-18-5, 2,3-dihydroxy-propyl acetate]",some antiproliferative effect with viable cells
